Columns and labels:
HCT116 cells = assay: Cell viability assay (MTT) in HCT116 cell line; assay type: cell-based; conditions: Homo sapiens, HCT-116, 72 hrs, IC50 range, read-out: HCT116 cell growth inhibition
Outline: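 MTT read-out (4 hrs, 37 °C, DMSO extraction) following 72 hrs of treatment with 0-50 μM Aurora inhibitor. HCT116 cells were plated a day earlier and tested in triplicate; IC50 derived from the curve.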

Aurora-A = target: T1, Aurora-A (Homo sapiens, UniProt O14965); assay: Flashplate Aurora A enzyme inhibition assay; assay type: biochemical; conditions: Flashplate assay; IC50 range; read-out: Aurora-A inhibition
T1 sequence (O14965 1-403): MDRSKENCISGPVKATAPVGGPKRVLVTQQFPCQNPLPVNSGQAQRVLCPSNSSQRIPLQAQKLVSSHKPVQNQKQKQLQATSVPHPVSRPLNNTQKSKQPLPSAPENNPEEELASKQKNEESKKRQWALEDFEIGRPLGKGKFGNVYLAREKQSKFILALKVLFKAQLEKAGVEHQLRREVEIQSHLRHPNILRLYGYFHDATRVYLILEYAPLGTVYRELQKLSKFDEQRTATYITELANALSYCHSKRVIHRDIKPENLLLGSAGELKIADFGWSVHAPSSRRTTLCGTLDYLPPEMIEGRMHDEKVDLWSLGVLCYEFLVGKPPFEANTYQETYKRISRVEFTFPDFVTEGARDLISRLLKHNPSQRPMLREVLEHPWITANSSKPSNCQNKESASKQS
Outline: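 This is a radiometric Flashplate format: plates were precoated with DTT, and compound (in 2% DMSO) was mixed with kinase buffer (pH 7.5 Tris, MgCl2, NaCl) containing 1 mM MBP, 20 μM ATP and ^33P-ATP. The reaction was started with 250 ng Aurora-A per well and incubated 2 h at RT. It was then stopped by 10 mM sodium pyrophosphate washing, and plates were scintillation-counted.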

| IC50 (HCT116 cells) [nM] | IC50 (Aurora-A) [nM] | SMILES |
| --- | --- | --- |
| < 500 | < 500 | OC1CCN(c2ccc(-c3nc4c(N5CCN(Cc6cccnc6)CC5)c(Br)cnc4[nH]3)cc2)CC1 [Example 114, 1-(4-(6-Bromo-7-(4-(pyridin-3-ylmethyl)piperazin-1-yl)-3H-imidazo[4,5-b]pyridin-2-yl)phenyl)piperidin-4-ol] |
| 2000 to 50000 | < 500 | Cn1cc(-c2nc3c(N4CCN(Cc5cccnc5)CC4)c(Br)cnc3[nH]2)cn1 [Example 56, 6-Bromo-2-(1-methyl-1H-pyrazol-4-yl)-7-(4-(pyridin-3-ylmethyl)piperazin-1-yl)-3H-imidazo[4,5-b]pyridine] |
| 500 to 2000 | < 500 | NCc1ccc(-c2nc3c(N4CCC(Oc5ccccc5)CC4)c(Br)cnc3[nH]2)cc1 [Example 135, (4-(6-Bromo-7-(4-phenoxypiperidin-1-yl)-3H-imidazo[4,5-b]pyridin-2-yl)phenyl)methanamine] |
| 2000 to 50000 | < 500 | COc1ccc(-c2nc3c(N4CCN(Cc5cccnc5)CC4)c(Br)cnc3[nH]2)cn1 [Example 94, 6-Bromo-2-(6-methoxypyridin-3-yl)-7-(4-(pyridin-3-ylmethyl)piperazin-1-yl)-3H-imidazo[4,5-b]pyridine] |
| < 500 | < 500 | Brc1cnc2[nH]c(-c3ccc(Cn4cccn4)cc3)nc2c1N1CCN(Cc2ccncc2)CC1 [Example 78, 2-(4-((1H-Pyrazol-1-yl)methyl)phenyl)-6-bromo-7-(4-(pyridin-4-ylmethyl)piperazin-1-yl)-3H-imidazo[4,5-b]pyridine] |
| 500 to 2000 | < 500 | CN(C)Cc1cccc(-c2nc3c(N4CCN(CC(=O)Nc5nccs5)CC4)c(Br)cnc3[nH]2)c1 [Example 13, 2-{4-[6-Bromo-2-(3-dimethylaminomethyl-phenyl)-3H-imidazo[4,5-b]pyridin-7-yl]-piperazin-1-yl}-N-thiazol-2-yl-acetamide] |
| 500 to 2000 | < 500 | COc1cccc(-c2nc3c(N4CCN(Cc5cc(C)on5)CC4)c(Br)cnc3[nH]2)c1 [Example 81, 6-Bromo-2-(3-methoxy-phenyl)-7-[4-(5-methyl-isoxazol-3-ylmethyl)-piperazin-1-yl]-3H-imidazo[4,5-b]pyridine] |
| 500 to 2000 | < 500 | Brc1cnc2[nH]c(-c3ccc(CN4CCNCC4)cc3)nc2c1N1CCN(Cc2cscn2)CC1 [Example 179, 4-((4-(6-Bromo-2-(4-(piperazin-1-ylmethyl)phenyl)-3H-imidazo[4,5-b]pyridin-7-yl)piperazin-1-yl)methyl)thiazole] |
| 500 to 2000 | < 500 | COc1ccc(CN2CCN(c3c(Br)cnc4[nH]c(-c5ccc(CN6CCOCC6)cc5)nc34)CC2)cn1 [Example 117, 4-(4-(6-Bromo-7-(4-((6-methoxypyridin-3-yl)methyl)piperazin-1-yl)-3H-imidazo[4,5-b]pyridin-2-yl)benzyl)morpholine] |
| 2000 to 50000 | < 500 | CC(C)c1nc(CN2CCN(c3c(Br)cnc4[nH]c(-c5ccc(CN6CCOCC6)cc5)nc34)CC2)cs1 [Example 155, 4-(4-(6-Bromo-7-(4-((2-isopropylthiazol-4-yl)methyl)piperazin-1-yl)-3H-imidazo[4,5-b]pyridin-2-yl)benzyl)morpholine] |
| < 500 | < 500 | FC(F)(F)c1ccc(CN2CCN(c3c(Br)cnc4[nH]c(-c5ccc(CN6CCOCC6)cc5)nc34)CC2)cn1 [Example 125, 4-(4-(6-Bromo-7-(4-((6-(trifluoromethyl)pyridin-3-yl)methyl)piperazin-1-yl)-3H-imidazo[4,5-b]pyridin-2-yl)benzyl)morpholine] |
| 2000 to 50000 | < 500 | Cn1cncc1CN1CCN(c2c(Br)cnc3[nH]c(-c4ccc(CN5CCNCC5)cc4)nc23)CC1 [Example 181, 6-bromo-7-(4-((1-methyl-1H-imidazol-5-yl)methyl)piperazin-1-yl)-2-(4-(piperazin-1-ylmethyl)phenyl)-3H-imidazo[4,5-b]pyridine] |
| < 500 | < 500 | CC(C)(C)OC(=O)N1CCN(Cc2ccc(-c3nc4c(N5CCN(Cc6cncnc6)CC5)c(Cl)cnc4[nH]3)cc2)CC1 [Example 140, tert-Butyl 4-(4-(6-chloro-7-(4-(pyrimidin-5-ylmethyl)piperazin-1-yl)-3H-imidazo[4,5-b]pyridin-2-yl)benzyl)piperazine-1-carboxylate] |
| < 500 | < 500 | Brc1cnc2[nH]c(-c3ccc(N4CCOCC4)cc3)nc2c1N1CCN(Cc2cccnc2)CC1 [Example 102, 4-(4-(6-Bromo-7-(4-(pyridin-3-ylmethyl)piperazin-1-yl)-3H-imidazo[4,5-b]pyridin-2-yl)phenyl)morpholine] |
| 500 to 2000 | < 500 | COc1ccc(-c2nc3c(N4CCN(CC(=O)Nc5nccs5)CC4)c(Cl)cnc3[nH]2)cc1 [Example 19, 2-(4-(6-Chloro-2-(4-methoxyphenyl)-3H-imidazo[4,5-b]pyridin-7-yl)piperazin-1-yl)-N-(thiazol-2-yl)acetamide] |
| 500 to 2000 | < 500 | Brc1cnc2[nH]c(-c3ccc(-n4cccn4)cc3)nc2c1N1CCN(Cc2cccnc2)CC1 [Example 108, 2-(4-(1H-pyrazol-1-yl)phenyl)-6-bromo-7-(4-(pyridin-3-ylmethyl)piperazin-1-yl)-3H-imidazo[4,5-b]pyridine] |
| < 500 | < 500 | Clc1cnc2[nH]c(-c3ccc(Cn4cccn4)cc3)nc2c1N1CCN(Cc2ccncc2)CC1 [Example 83, 2-(4-((1H-Pyrazol-1-yl)methyl)phenyl)-6-chloro-7-(4-(pyridin-4-ylmethyl)piperazin-1-yl)-3H-imidazo[4,5-b]pyridine] |
| < 500 | < 500 | CC(c1ccncc1)N1CCN(c2c(Br)cnc3[nH]c(-c4ccc(CN5CCOCC5)cc4)nc23)CC1 (centres unmarked) [Example 129, 4-(4-(6-Bromo-7-(4-(1-(pyridin-4-yl)ethyl)piperazin-1-yl)-3H-imidazo[4,5-b]pyridin-2-yl)benzyl)morpholine] |
| 500 to 2000 | < 500 | COc1ccc(-c2nc3c(N4CCN(Cc5cccnc5)CC4)c(Br)cnc3[nH]2)cc1 [Example 28, 6-Bromo-2-(4-methoxyphenyl)-7-(4-(pyridin-3-ylmethyl)piperazin-1-yl)-3H-imidazo[4,5-b]pyridine] |
| 500 to 2000 | < 500 | Fc1ccc(CN2CCN(c3c(Br)cnc4[nH]c(-c5ccc(CN6CCOCC6)cc5)nc34)CC2)cc1 [Example 148, 4-(4-(6-Bromo-7-(4-(4-fluorobenzyl)piperazin-1-yl)-3H-imidazo[4,5-b]pyridin-2-yl)benzyl)morpholine] |

| SMILES | IC50 (HCT116 cells) [nM] | IC50 (Aurora-A) [nM] |
| --- | --- | --- |
| CN(C)c1ccc(-c2nc3c(N4CCCN(Cc5ccc(F)cc5)CC4)c(Br)cnc3[nH]2)cc1 [Example 34, 4-(6-Bromo-7-(4-(4-fluorobenzyl)-1,4-diazepan-1-yl)-3H-imidazo[4,5-b]pyridin-2-yl)-N,N-dimethylaniline] | 2000 to 50000 | < 500 |
| CN(C)c1ccc(-c2nc3c(N4CCN(CC(=O)N(C)c5nccs5)CC4)c(Br)cnc3[nH]2)cc1 [Example 89, 2-(4-(6-Bromo-2-(4-(dimethylamino)phenyl)-3H-imidazo[4,5-b]pyridin-7-yl)piperazin-1-yl)-N-methyl-N-(thiazol-2-yl)acetamide] | < 500 | < 500 |
| CN(C)c1ccc(-c2nc3c(N4CCN(S(C)(=O)=O)CC4)c(Br)cnc3[nH]2)cc1 [Example 49, 4-(6-Bromo-7-(4-(methylsulfonyl)piperazin-1-yl)-3H-imidazo[4,5-b]pyridin-2-yl)-N,N-dimethylaniline] | 500 to 2000 | < 500 |
| COc1ccc(-c2nc3c(N4CCN(Cc5cncn5C)CC4)c(Br)cnc3[nH]2)cc1 [Example 165, 6-Bromo-2-(4-methoxyphenyl)-7-(4-((1-methyl-1H-imidazol-5-yl)methyl)piperazin-1-yl)-3H-imidazo[4,5-b]pyridine] | 500 to 2000 | < 500 |
| CC(c1cccnc1)N1CCN(c2c(Br)cnc3[nH]c(-c4ccc(N(C)C)cc4)nc23)CC1 (centres unmarked) [Example 52, 4-(6-Bromo-7-(4-(1-(pyridin-3-yl)ethyl)piperazin-1-yl)-3H-imidazo[4,5-b]pyridin-2-yl)-N,N-dimethylaniline] | 500 to 2000 | < 500 |
| Cc1cc(CN2CCN(c3c(Cl)cnc4[nH]c(-c5ccc(CN6CCOCC6)cc5)nc34)CC2)no1 [Example 80, 6-Chloro-7-[4-(5-methyl-isoxazol-3-ylmethyl)-piperazin-1-yl]-2-(4-morpholin-4-ylmethyl-phenyl)-3H-imidazo[4,5-b]pyridine] | 500 to 2000 | < 500 |
| COc1ccc(-c2nc3c(N4CCN(Cc5coc(C(C)C)n5)CC4)c(Br)cnc3[nH]2)cc1 [Example 145, 4-((4-(6-bromo-2-(4-methoxyphenyl)-3H-imidazo[4,5-b]pyridin-7-yl)piperazin-1-yl)methyl)-2-isopropyloxazole] | < 500 | < 500 |
| COc1ccc(-c2nc3c(N4CCN(CC5CC5)CC4)c(Br)cnc3[nH]2)cc1 [Example 73, 6-Bromo-7-(4-cyclopropylmethyl-piperazin-1-yl)-2-(4-methoxy-phenyl)-3H-imidazo[4,5-b]pyridine] | 500 to 2000 | 500 to 2000 |
